The values that follow are results of earlier work, collected in publication PMC6832352, “Synthesis and Glycosidase Inhibition of Broussonetine M and Its Analogues” (Molecules, 2019).

A word on the pIC50: it is −log10 of the IC50, conventionally taken in molar units.

pIC50: −log10 of the molar value.

The target in one series is Rat intestinal maltase. The following applies: cited from earlier work.
Another series deals with T1, β-Glucuronidase (Escherichia coli, UniProt P05804).
T1 construct: purchased Sigma-Aldrich Chemical Co
The arrangement: method as in PMID 22928735. The following applies: E.coli, cited from earlier work; for inhibition %: at 1000 μM.

Series [1] deals with T2, α-Glucosidase (Saccharomyces cerevisiae, UniProt P53341).
T2 construct: purchased Sigma-Aldrich Chemical Co
The following applies: Yeast, cited from earlier work; for inhibition %: at 1000 μM.

The subject of another series is β-Galactosidase. The following applies: β-Galactosidase, Bovine liver, cited from earlier work; for inhibition %: at 1000 μM.
The target of another series is T3, α-L-Rhamnosidase (Penicillium decumbens, UniProt S7ZS15).
T3 sequence (S7ZS15 1-894): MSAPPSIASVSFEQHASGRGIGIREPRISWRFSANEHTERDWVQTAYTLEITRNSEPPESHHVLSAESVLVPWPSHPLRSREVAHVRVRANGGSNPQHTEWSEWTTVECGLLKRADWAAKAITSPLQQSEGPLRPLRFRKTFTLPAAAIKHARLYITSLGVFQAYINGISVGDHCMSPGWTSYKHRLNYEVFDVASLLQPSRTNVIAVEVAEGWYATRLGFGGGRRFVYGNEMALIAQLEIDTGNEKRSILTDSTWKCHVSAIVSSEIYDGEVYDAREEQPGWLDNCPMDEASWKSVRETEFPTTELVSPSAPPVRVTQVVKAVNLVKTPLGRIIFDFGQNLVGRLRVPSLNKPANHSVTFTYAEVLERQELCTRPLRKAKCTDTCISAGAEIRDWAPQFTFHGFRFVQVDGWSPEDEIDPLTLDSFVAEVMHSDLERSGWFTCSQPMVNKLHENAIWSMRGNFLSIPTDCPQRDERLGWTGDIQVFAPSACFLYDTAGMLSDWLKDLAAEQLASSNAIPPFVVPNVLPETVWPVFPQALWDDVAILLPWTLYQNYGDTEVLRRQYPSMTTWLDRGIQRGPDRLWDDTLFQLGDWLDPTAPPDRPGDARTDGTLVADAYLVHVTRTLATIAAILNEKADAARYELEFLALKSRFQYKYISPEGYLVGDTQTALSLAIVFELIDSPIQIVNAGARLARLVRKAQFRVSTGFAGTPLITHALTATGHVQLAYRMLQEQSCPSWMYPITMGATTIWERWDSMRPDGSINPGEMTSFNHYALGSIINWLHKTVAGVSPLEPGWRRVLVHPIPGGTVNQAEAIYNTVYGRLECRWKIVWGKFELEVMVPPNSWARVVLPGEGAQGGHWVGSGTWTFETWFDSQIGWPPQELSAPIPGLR
The following applies: at 1000 μM, P. decumbens; cited from earlier work.

For a further series, the target named is T4, α-L-Fucosidase (Bos taurus, UniProt Q2KIM0).
T4 construct: purchased Sigma-Aldrich Chemical Co; host or cells: bovine kidney
T4 sequence (Q2KIM0 23-468): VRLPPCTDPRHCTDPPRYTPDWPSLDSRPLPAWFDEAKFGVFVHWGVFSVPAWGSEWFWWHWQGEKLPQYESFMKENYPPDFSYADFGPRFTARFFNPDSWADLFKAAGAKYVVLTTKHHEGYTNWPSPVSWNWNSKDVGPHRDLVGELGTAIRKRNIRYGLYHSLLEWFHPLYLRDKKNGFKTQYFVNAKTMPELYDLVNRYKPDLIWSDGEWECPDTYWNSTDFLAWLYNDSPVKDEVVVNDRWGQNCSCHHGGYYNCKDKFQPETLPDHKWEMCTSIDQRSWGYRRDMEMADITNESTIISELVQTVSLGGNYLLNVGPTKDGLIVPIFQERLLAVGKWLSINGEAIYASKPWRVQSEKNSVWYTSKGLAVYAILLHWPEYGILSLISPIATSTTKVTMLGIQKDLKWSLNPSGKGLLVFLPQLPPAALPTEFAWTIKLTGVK
The following applies: at 1000 μM, Bovine kidney; cited from earlier work.

Another series concerns the target β-Mannosidase. The following applies: Snail, cited from earlier work; for inhibition %: at 1000 μM.
Series [2] addresses β-Glucosidase. The following applies: Almond, cited from earlier work; for inhibition %: at 1000 μM.
For a further series, the target named is T5, α-Mannosidase (Canavalia ensiformis, UniProt C0HJB3).
T5 construct: purchased Sigma-Aldrich Chemical Co
T5 sequence (C0HJB3 1-981): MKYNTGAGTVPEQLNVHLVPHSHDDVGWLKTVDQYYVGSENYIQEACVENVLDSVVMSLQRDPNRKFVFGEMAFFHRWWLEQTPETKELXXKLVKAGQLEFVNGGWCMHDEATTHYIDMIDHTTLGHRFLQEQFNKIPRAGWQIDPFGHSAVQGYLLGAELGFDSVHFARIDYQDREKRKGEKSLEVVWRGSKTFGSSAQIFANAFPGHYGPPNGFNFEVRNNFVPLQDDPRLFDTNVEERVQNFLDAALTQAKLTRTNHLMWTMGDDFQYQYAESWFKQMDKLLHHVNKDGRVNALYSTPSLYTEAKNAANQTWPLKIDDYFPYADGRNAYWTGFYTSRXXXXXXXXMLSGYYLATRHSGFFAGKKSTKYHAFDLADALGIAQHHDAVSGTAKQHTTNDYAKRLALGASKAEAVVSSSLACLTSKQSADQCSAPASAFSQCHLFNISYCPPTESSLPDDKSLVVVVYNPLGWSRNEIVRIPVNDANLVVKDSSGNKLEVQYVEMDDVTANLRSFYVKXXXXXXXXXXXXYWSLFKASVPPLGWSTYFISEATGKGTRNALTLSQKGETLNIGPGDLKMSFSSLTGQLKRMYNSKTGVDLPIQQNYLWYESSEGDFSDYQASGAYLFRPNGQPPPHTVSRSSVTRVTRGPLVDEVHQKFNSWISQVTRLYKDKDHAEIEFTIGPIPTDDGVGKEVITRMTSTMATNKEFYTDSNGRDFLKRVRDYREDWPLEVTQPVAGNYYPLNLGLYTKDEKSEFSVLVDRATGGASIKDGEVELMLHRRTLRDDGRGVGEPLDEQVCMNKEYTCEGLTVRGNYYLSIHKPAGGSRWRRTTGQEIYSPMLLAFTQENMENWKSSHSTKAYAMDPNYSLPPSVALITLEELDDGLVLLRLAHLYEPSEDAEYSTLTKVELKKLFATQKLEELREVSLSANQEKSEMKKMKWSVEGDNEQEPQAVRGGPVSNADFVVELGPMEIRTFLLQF
The following applies: Jack bean, cited from earlier work; for inhibition %: at 1000 μM.

The target in a further series is T6, α-Galactosidase (Coffea arabica, UniProt Q42656).
T6 construct: purchased Sigma-Aldrich Chemical Co
The following applies: at 1000 μM, Coffee beans; cited from earlier work.

Series [3] concerns the target T7, β-Glucosidase (Bos taurus, UniProt F1MNT6).
T7 sequence (F1MNT6 1-469): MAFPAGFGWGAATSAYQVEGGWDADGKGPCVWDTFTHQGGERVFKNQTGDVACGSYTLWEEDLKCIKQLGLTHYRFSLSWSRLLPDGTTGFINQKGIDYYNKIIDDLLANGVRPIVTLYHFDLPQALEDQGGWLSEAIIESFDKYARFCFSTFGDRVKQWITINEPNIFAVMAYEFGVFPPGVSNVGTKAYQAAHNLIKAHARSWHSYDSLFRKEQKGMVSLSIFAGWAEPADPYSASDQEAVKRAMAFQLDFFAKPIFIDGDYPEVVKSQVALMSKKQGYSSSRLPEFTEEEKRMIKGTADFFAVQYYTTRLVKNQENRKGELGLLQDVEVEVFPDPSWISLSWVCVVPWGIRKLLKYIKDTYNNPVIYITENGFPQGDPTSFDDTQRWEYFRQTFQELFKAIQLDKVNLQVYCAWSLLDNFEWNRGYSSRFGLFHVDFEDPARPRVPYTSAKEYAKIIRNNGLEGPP
The following applies: at 1000 μM, Bovine liver; cited from earlier work.

For series [4], the target named is T8, α-Glucosidase (Oryza sativa subsp. japonica, UniProt Q653V7).
T8 construct: purchased Sigma-Aldrich Chemical Co
The following applies: at 1000 μM, Rice; cited from earlier work.

For a further series, the system named is β-glycosidase. Further details: method as in earlier work. The following applies: cited from earlier work.

T1 sequence (P05804 whole entry): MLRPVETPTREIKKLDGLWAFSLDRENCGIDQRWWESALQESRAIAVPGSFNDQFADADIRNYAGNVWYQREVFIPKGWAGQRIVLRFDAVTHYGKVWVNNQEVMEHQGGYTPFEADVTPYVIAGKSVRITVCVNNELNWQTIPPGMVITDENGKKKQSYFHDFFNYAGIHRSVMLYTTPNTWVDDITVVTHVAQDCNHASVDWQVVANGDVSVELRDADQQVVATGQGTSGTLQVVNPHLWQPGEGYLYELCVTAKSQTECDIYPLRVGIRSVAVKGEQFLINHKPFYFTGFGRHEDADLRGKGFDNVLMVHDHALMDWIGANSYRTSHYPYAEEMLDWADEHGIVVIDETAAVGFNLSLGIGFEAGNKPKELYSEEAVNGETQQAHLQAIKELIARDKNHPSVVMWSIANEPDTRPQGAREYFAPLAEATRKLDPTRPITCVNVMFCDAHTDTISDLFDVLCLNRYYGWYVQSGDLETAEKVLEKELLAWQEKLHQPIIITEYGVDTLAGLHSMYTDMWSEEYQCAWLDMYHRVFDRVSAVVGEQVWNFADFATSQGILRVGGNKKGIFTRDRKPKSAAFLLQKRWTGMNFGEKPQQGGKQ
T2 sequence (P53341 whole entry): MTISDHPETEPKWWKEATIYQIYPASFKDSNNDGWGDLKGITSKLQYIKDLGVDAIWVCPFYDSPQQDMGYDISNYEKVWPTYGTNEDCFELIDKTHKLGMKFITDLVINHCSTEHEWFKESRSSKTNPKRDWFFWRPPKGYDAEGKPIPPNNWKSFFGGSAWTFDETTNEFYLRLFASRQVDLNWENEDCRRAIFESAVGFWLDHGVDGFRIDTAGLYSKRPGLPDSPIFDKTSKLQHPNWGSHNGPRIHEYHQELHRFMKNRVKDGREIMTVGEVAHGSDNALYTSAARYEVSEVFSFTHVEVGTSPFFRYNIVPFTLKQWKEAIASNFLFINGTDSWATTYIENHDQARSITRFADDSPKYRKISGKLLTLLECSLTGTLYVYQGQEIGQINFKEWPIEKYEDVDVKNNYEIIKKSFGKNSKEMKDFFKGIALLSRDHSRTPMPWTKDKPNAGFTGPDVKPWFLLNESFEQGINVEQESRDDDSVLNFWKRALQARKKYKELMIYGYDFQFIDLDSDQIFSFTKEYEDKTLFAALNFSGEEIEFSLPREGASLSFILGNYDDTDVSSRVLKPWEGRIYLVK
T6 sequence (Q42656 16-378): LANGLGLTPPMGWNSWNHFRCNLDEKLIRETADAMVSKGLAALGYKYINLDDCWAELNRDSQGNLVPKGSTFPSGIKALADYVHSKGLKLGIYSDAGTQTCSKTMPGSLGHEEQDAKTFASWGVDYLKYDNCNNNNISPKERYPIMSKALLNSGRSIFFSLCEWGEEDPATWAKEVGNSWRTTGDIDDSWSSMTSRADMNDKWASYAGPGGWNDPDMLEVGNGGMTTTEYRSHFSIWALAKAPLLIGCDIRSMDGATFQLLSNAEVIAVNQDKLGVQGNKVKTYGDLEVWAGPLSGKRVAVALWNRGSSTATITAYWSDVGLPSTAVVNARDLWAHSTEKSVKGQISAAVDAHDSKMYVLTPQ
T8 sequence (Q653V7 34-885): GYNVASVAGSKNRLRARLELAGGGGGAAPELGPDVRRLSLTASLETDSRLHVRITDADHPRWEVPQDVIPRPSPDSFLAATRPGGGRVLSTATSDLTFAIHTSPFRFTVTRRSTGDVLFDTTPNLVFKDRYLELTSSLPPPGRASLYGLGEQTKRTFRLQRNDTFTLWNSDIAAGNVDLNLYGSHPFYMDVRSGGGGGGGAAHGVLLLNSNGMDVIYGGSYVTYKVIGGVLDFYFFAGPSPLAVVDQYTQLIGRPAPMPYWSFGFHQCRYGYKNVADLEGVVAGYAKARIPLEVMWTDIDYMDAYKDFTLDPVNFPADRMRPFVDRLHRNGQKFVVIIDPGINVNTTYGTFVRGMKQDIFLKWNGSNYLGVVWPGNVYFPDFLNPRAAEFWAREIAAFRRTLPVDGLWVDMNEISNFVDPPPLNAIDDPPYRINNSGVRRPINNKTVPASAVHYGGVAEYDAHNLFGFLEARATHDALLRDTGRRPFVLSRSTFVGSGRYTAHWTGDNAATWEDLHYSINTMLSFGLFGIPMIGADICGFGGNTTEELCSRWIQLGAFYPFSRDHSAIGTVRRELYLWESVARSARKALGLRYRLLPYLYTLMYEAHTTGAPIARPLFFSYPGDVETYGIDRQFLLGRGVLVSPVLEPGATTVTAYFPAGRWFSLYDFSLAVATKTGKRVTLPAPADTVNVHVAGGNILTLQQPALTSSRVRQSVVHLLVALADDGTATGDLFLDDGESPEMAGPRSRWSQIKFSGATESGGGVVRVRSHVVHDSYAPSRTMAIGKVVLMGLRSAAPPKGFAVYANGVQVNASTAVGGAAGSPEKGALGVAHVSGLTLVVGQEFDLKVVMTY

Consider `OC[C@@H]1N[C@@H](CO)[C@H](O)[C@H]1O` (single isomer, unassigned) [L-DMDP (ent-2)], for which the pIC50 on Rat intestinal maltase is […]; at β-Glucuronidase it was […]; at α-Glucosidase [1], […]; on β-Galactosidase, […]; on β-Mannosidase, […]; at β-Glucosidase [2] it was […]. In addition, the pIC50 on α-Mannosidase is […]. Also, the inhibition % on β-Glucuronidase was 0.8%; at α-Glucosidase [1], 34.9%; in the series with β-Galactosidase, […]; at α-L-Rhamnosidase, 45.6%; on α-L-Fucosidase, […]; in the series on β-Mannosidase it was 12.6%. Further, the inhibition % with β-Glucosidase [2] is listed as 12.1%; on α-Mannosidase, 17.3%; on α-Galactosidase, 13.8%; at β-Glucosidase [3], 4.6%.
As for `OC[C@@H]1N[C@H](CO)[C@@H](O)[C@@H]1O` [D-gluco-DMDP], the pIC50 is 3.86 at Rat intestinal maltase; […] on β-Glucuronidase; 3.78 on α-Glucosidase [1]; […] at β-Galactosidase; […] on β-Mannosidase; […] on β-Glucosidase [2]. In addition, at α-Mannosidase, the pIC50 is […]. Further, the inhibition % on β-Glucuronidase is 5.1%; on α-L-Rhamnosidase, 24.1%; at α-L-Fucosidase, 37.2%; in the series with β-Mannosidase, 14.6%; at α-Mannosidase it was 13.3%; at α-Galactosidase, 38.4%.
For the compound `OCC1NC(CO)C(O)C1O` (stereo not shown) [DMDP (2), 2,5-dihydroxymethyl-3,4-dihydroxypyrrolidine], the pIC50 on Rat intestinal maltase is 3.54; at β-Glucuronidase, […]; on α-Glucosidase [1], […]; at β-Galactosidase, […]; at β-Mannosidase, 3.14; on β-Glucosidase [2] it was 5.00. In addition, on α-Mannosidase, the negative logarithm of the IC50 (pIC50) was […]. In addition, the inhibition % at β-Glucuronidase is reported as 0.4%; on α-Glucosidase [1] it was 15.6%; on α-L-Rhamnosidase, 24.1%; on α-L-Fucosidase it was 37.2%; at α-Mannosidase it was 31.5%; on α-Galactosidase it was 10.5%.
For the compound `OC[C@@H]1N[C@@H](CO)[C@@H](O)[C@H]1O` [L-altro-DMDP], the pIC50 on Rat intestinal maltase is 3.12; at β-Glucuronidase, […]; on α-Glucosidase [1], […]; at β-Galactosidase, […]; on β-Mannosidase it was […]; on β-Glucosidase [2], […]. Besides, on α-Mannosidase, the pIC50 is […]. Also, the inhibition % at β-Glucuronidase is 2.0%; on α-Glucosidase [1], 35.1%; in the series on β-Galactosidase it was […]; in the series with β-Mannosidase, 3.7%; with β-Glucosidase [2], 15.9%; on α-Glucosidase [4], 9.5%. In addition, the inhibition % is on record as 37.6% on α-Mannosidase and 10.3% at β-Glucosidase [3].
Regarding `O=C(CCCO)CCCCCCCC[C@@H](O)[C@H]1N[C@H](CO)[C@@H](O)[C@@H]1O` [compound 4, broussonetine E], the “β-glycosidase inhibition (in words)” value with β-glycosidase was “potent β-glycosidase inhibition”.
Take `O=C(CCCCO)CCCCCCC[C@@H](O)[C@H]1N[C@H](CO)[C@@H](O)[C@@H]1O` [compound 5, broussonetine F]: in the series with β-glycosidase, the “β-glycosidase inhibition (in words)” value is listed as “potent β-glycosidase inhibition”.
Take `OCC1NC(C(O)CCCCC2CCCC3(CCCO3)O2)C(O)C1O` (stereo not shown) [compound 6, broussonetine G]: the “β-glycosidase inhibition (in words)” value with β-glycosidase is given as “potent β-glycosidase inhibition”.
